Test results published in patent publication US20100087516A1, “ANTIBACTERIAL MACROLACTIN A THAT BACILLUS POLYFERMENTICUS KJS-2 PRODUCED IN” (priority 2007, published 2010).
Values after ≈ are worked out from the molar mass of the structure shown.

How the values were obtained:
[1] = system: 13 MRSA strains, clinically isolated; assay: Minimal inhibitory concentration (MIC>90) in MH II medium; type: cell-based, methicillin-resistant Staphylococcus aureus
Method: (§1) The MIC (minimal inhibitory concentration) against VRE and MRSA was measured to test antibiotic activity of Macrolactin A produced by Bacillus polyfermenticus KJS-2, which is the strain of the present invention, against the two strains. The strains used for the experiment were 11 VRE strains and 13 MRSA strains, which were clinically isolated. Each strain used for the experiment was cultured in MH II medium at 200 rpm for 6 hours at 37° C., the absorbance of the medium measured at OD600nm using a UV detector, and then 1 ml aliquot of the medium was spread over MH II agar medium and incubated for 16 hours at 37° C. The number of colonies formed on the agar medium after 16 hours of incubation was counted. Each strain used for experiment was cultured in MH II medium at 200 rpm for 6 hours at 37° C., and the absorbance of the medium was measured at OD600nm using a UV detector. The number of cells were calculated based on the ratio of the number of colonies to the absorbance of the medium, and measured by the above process. Each culture medium was diluted to the final cell concentration of 0.25*10^7 cfu/ml and Macrolactin A was dissolved in the solvent DMSO, while ampicillin, teycoplanin, vancomycin and methillin were dissolved in water. To measure the MIC of Macrolactin A or of the four antibiotics, the mixture of the materials listed in Table 5 and Macrolactin A or the mixture of the materials listed in Table 6 and each of the four antibiotics, respectively in a 500 μl eppendorff tub, was incubated at 200 rpm for 16 hours at 37° C., and then absorbance was measured by a UV/Visible Light detector at 600 nm using a Fluorescence Multi-Detection Reader.

[2] = system: B16-F10 murine melanoma cancer cell; conditions: cited from earlier work
[3] = system: 11 VRE strains, clinically isolated; assay: Minimal inhibitory concentration (MIC>90) in MH II medium; type: cell-based, vancomycin-resistant enterococci
Method: as §1

[4] = system: methicillin-resistant Staphylococcus aureu (MRSA); conditions: cited from earlier work
[5] = system: HIV; conditions: cited from earlier work

CC1CCC/C=C/C=C/C(O)CC(O)C/C=C\C=C\C(O)C/C=C/C=C\C(=O)O1 (stereo not shown) [Macrolactin A]
activity relative to teycoplanin (average MIC>90) ([1]; 13 MRSA strains): 5.3 times | average MIC>90 ([1]; Average of the 13 MRSA strains): 19.83 µg/mL | MIC>90 ([1]; MRSA1): 31.25 µg/mL (≈ 77.6 µM) | MIC>90 ([1]; MRSA2): 15.63 µg/mL (≈ 38.8 µM) | MIC>90 ([1]; MRSA3): 15.63 µg/mL (≈ 38.8 µM) | MIC>90 ([1]; MRSA4): 31.25 µg/mL (≈ 77.6 µM) | MIC>90 ([1]; MRSA5): 31.25 µg/mL (≈ 77.6 µM) | MIC>90 ([1]; MRSA6): 31.25 µg/mL (≈ 77.6 µM) | MIC>90 ([1]; MRSA7): 15.63 µg/mL (≈ 38.8 µM) | MIC>90 ([1]; MRSA8): 7.81 µg/mL (≈ 19.4 µM) | MIC>90 ([1]; MRSA8*): 15.63 µg/mL (≈ 38.8 µM) | MIC>90 ([1]; MRSA9): 15.63 µg/mL (≈ 38.8 µM) | MIC>90 ([1]; MRSA10): 15.63 µg/mL (≈ 38.8 µM) | MIC>90 ([1]; MRSA11): 15.63 µg/mL (≈ 38.8 µM) | MIC>90 ([1]; MRSA11*): 15.63 µg/mL (≈ 38.8 µM) | cytotoxicity on the B16-F10 murine melanoma cancer cell [2]: shows cytotoxicity | activity relative to teycoplanin (average MIC>90) ([3]; 11 VRE strains): 4 times | average MIC>90 ([3]; Average of the 11 VRE strains): 31.25 µg/mL | MIC>90 ([3]; VRE1): 31.25 µg/mL (≈ 77.6 µM) | MIC>90 ([3]; VRE2): 31.25 µg/mL (≈ 77.6 µM) | MIC>90 ([3]; VRE3): 31.25 µg/mL (≈ 77.6 µM) | MIC>90 ([3]; VRE4): 31.25 µg/mL (≈ 77.6 µM) | MIC>90 ([3]; VRE5): 15.63 µg/mL (≈ 38.8 µM) | MIC>90 ([3]; VRE6): 31.25 µg/mL (≈ 77.6 µM) | MIC>90 ([3]; VRE7): 31.25 µg/mL (≈ 77.6 µM) | MIC>90 ([3]; VRE9): 31.25 µg/mL (≈ 77.6 µM) | MIC>90 ([3]; VRE10): 31.25 µg/mL (≈ 77.6 µM) | MIC>90 ([3]; VRE914): 62.5 µg/mL (≈ 155 µM) | MIC>90 ([3]; VRE915): 15.63 µg/mL (≈ 38.8 µM) | antibiotic activity against MRSA [4]: antibiotic activity only against MRSA | antiviral activity against HIV [5]: antiviral activity
